Laboratory results reported in US20160213733A1, “CHARACTERIZATION OF RICE” (Phytoquest Limited, priority 2013, published 2016).

Legend:
[1] = tested on: digestive enzymes of rat intestinal acetone powder extract; experiment: Rat digestive enzyme assays, all activities measured; format: biochemical
Protocol: (§1) Rat intestinal acetone powder extract was purchased from Sigma (11630 lot SLBB6071V) to give results more closely related to digestion. 100 mg of the acetone powder was mixed with 1 ml cold PBS homogenised, sonicated briefly and then spun at 12K rpm for 3 mins.

[2] = in vivo; cited from earlier work
[3] = tested on: alpha-glucosidase activity of rat intestinal acetone powder extract; experiment: Rat digestive enzyme assay, PNP α-D-glucoside substrate; format: biochemical
Protocol: as §1

[4] = tested on: rodent pancreatic cell; conditions: rodent pancreatic cell studies; cited from earlier work

| SMILES | inhibition of the digestive enzymes / activities measured (in words) [1] | effective dose against health risks of excessive intake of fast-digestible carbohydrates [2] [mg/kg] | postprandial blood glucose (in words) [2] | inhibition of the alpha-glucosidase activity (in words) [3] | glucose induced-insulin secretion (in words) [4] |
| --- | --- | --- | --- | --- | --- |
| OC[C@H]1NCC[C@H](O)[C@H]1O [3,4-diepi fagomine, 3,4-diepifagomine] | inhibited none of the activities measured |  |  |  |  |
| OC[C@H]1NCC[C@H](O)[C@@H]1O [3-epifagomine] | inhibited none of the activities measured |  |  |  |  |
| OC[C@H]1NCC[C@@H](O)[C@@H]1O [fagomine, 1,2-dideoxynojirimycin] |  | 1 | lowers postprandial blood glucose | inhibited | potentiate glucose induced-insulin secretion |
